# Read-outs that look alike come from different tables or passages of the source.
# Tests used:
# HT1376 = test: In vitro anticancer activity, bladder carcinoma efficacy models (cytotoxicity/clonogenic); assay type: cell-based, human; settings: HT1376, varied concentrations
# Method: (§1) Human bladder cancer cell lines HTB-5, HT-1376 and T-24 were purchased from American Type Culture Collection, USA. Cell lines HTB-5 and HT1376 were routinely cultured in Eagle's Minimum Essential Medium with 10% fetal bovine serum and T-24 in McCoy's 5A medium with 10% fetal bovine serum. All cell lines were maintained at 37° C. in a humidified atmosphere containing 5% CO2.
# (§2) In vitro cytotoxicity assay: Cells were plated in 96-well cell culture plates (4×10^3 cells/well) and were treated with drugs at various concentrations. Treated cells were maintained at 37° C. in 5% CO2 for 48 and 72 hrs. After the incubation antiproliferative activity of test compounds was measured using ProMega Cell Titer aqueous one solution cell proliferation assay kit, viz. CellTiter 96® AQueous One Solution Reagent. Cells were incubated for 1-4 hours at 37° C., 5% CO2 incubator and absorbance was measured at 490 nm using a plate reader. IC50 values were determined by plotting compound concentration versus cell viability.
# (§3) Clonogenic assay: bladder cancer cell lines viz HTB-5, HT-1376 and T-24 cells were plated at different densities i.e. 300 cells/well and 400 cells/well respectively in 3 ml volume per well into six-well plates and incubated overnight at 37° C. in a 5% CO2 incubator. […] Medium with drug was then replaced with medium without drug and plates were further incubated till visible colonies appeared (approximately for 12-14 days). Cells were then fixed with methanol:glacial acetic acid (2:1) and stained with 0.5% crystal violet. After staining for 2-3 min, plates were rinsed twice with D/W, dried and images were captured.
# HTB-5 = test: as above; assay type: cell-based, human; settings: HTB-5, varied concentrations
# Method: as §1, §2, §3
# T-24 = test: as above; assay type: cell-based, human; settings: T-24, varied concentrations
# Method: as §1, §2, §3
# BXF 1036 [1] = test: In vitro 2D assay, CellTiter-Blue Cell Viability Assay; assay type: cell-based; settings: Homo sapiens, BXF 1036, 96 h, read-out: Absolute IC50 values
# Method: (§4) The in-vitro anti-tumor activity of terconazole was assessed in five selected human bladder cancer cell lines. The test compounds were applied at 9 concentrations in half-log increments. As a reference compound cisplatin was tested in parallel. Cells were treated for 96 h with the test compounds. Anti-tumor activity was assessed by using the CellTiter-Blue® Cell Viability Assay. Potency is expressed as absolute IC50 and relative IC50 values, calculated by non-linear regression analysis.
# (§5) Tumor Cell Lines: In the present study the human bladder cancer cell lines BXF 1036, BXF 1218, BXF 1352, 5637 and T24 were used. BXF 1036, BXF 1218 and BXF 1352 were established at Oncotest from the corresponding human patient derived xenograft. T24 was purchased from ATCC (Rockville, Md., USA) and 5637 was from DSMZ (Braunschweig, Germany). Authenticity of cell lines was confirmed at the DSMZ by STR (short tandem repeat) analysis, a PCR based DNA-fingerprinting methodology. Cell lines were routinely passaged once or twice weekly and maintained in culture for up to 20 passages. All cells were grown at 37° C. in a humidified atmosphere with 5% CO2 in RPMI 1640 medium (25 mM HEPES, with L-glutamine, #FG1385, Biochrom, Berlin, Germany) supplemented with 10% (v/v) fetal calf serum (Sigma, Taufkirchen, Germany) and 0.1 mg/mL gentamicin (Life Technologies, Karlsruhe, Germany).
# (§6) Cell Proliferation Assay: The CellTiter-Blue® Cell Viability Assay (#G8081, Promega) was used according to manufacturer's instructions. Briefly, cells were harvested from exponential phase cultures, […] on the cell line's growth rate. After a 24 h recovery period to allow the cells to resume exponential growth, test compounds were added. Compounds were applied at 9 concentrations in half-log increments in duplicate and treatment continued for 96 h. After 96 h treatment of cells, 20 μL/well CellTiter-Blue® reagent was added.
# (§7) Following an incubation period of up to four hours, fluorescence (FU) was measured by using the Enspire Multimode Plate Reader (excitation k=531 nm, emission k=615 nm). For calculations, the mean values of duplicate/sixfold (untreated control) data were used. Sigmoidal concentration-response curves were fitted to the data points (T/C values) obtained for each cell line using 4 parameter non-linear curve fit (Oncotest Warehouse Software).
# BXF 1218 [2] = test: as above; assay type: cell-based; settings: Homo sapiens, BXF 1218, 96 h, read-out: Absolute IC50 values
# Method: as §4, §5, §6, §7
# BXF 1352 [3] = test: as above; assay type: cell-based; settings: Homo sapiens, BXF 1352, 96 h, read-out: Absolute IC50 values
# Method: as §4, §5, §6, §7
# BXF 5637 [4] = test: as above; assay type: cell-based; settings: Homo sapiens, BXF 5637, 96 h, read-out: Absolute IC50 values
# Method: as §4, §5, §6, §7
# BXF T24 [5] = test: as above; assay type: cell-based; settings: Homo sapiens, BXF T24, 96 h, read-out: Absolute IC50 values
# Method: as §4, §5, §6, §7
# [6] = tested on: five selected human bladder cancer cell lines; test: In vitro 2D assay, CellTiter-Blue Cell Viability Assay, mean over panel; assay type: cell-based; settings: 96 h, read-out: Geometric Mean Absolute IC50 values
# Method: as §4
# as §5, with “All cells were grown at 37° C. in a humidified atmosphere with 5% CO2 in RPMI 1640 medium (25 mM HEPES, with L-glutamine, #FG1385, Biochrom, Berlin, Germany) supplemented with 10% (v/v) fetal calf serum (Sigma, Taufkirchen, Germany) and 0.1 mg/mL gentamicin (Life Technologies, Karlsruhe, Germany).” left out
# Following an incubation period of up to four hours, fluorescence (FU) was measured by using the Enspire Multimode Plate Reader (excitation k=531 nm, emission k=615 nm). […]
# BXF 1036 [7] = test: In vitro 3D clonogenic assay (colony formation in semi-solid medium); assay type: cell-based; settings: Homo sapiens, read-out: Absolute IC50 values
# Method: (§8) In the present study, terconazole and cisplatin were evaluated for their ability to inhibit anchorage independent growth and ex vivo colony formation of tumor cells in semi-solid medium. The compounds were tested against 5 human tumor cell lines of bladder cancer. Test concentrations ranged, from 0.0316 μM to 316.2 μM (terconazole), or from 0.00316 μM to 100 μM (cisplatin).
# (§9) Terconazole and the reference compound cisplatin were investigated for anticancer activity ex vivo in five human tumor cell lines of bladder cancer. Tests were carried out using a 3D clonogenic assay in 96-well format with image based read-out. The aim of the study was to investigate antitumor potency and tumor type selectivity of the compound.
# (§10) Clonogenic Assay Procedure: The clonogenic assay was carried out in a 96 well plate format using ultra low attachment plates. For each test, cells were prepared as described above and assay plates were prepared as follows: each test well contained a layer of semi-solid medium with tumor cells (50 and a second layer of medium supernatant with or without test compound (100 The cell layer consisted of 2·10^3 to 3·10^3 tumor cells per well, which were seeded in 50 μL/well cell culture medium (IMDM, supplemented with 20% (v/v) fetal calf serum, 0.01% (w/v) gentamicin, and 0.4% (w/v) agar. After 24 hours the test compounds were added after serial dilution in cell culture medium, and left on the cells for the duration of the experiment (continuous exposure, 100 μl drug overlay). Every plate included six untreated control wells and drug-treated groups in duplicate at 9 concentrations. Cultures were incubated at 37° C. and 7.5% CO2 in a humidified atmosphere for 8 to 13 days and monitored closely for colony growth using an inverted microscope. Within this period, ex vivo tumor growth led to the formation of colonies with a diameter of >50 μm. At the time of maximum colony formation, counts were performed with an automatic image analysis system (Bioreader 5000-Wa Biosys GmbH). 48 hours prior to evaluation, vital colonies were stained with a sterile aqueous solution of 2-(4-iodophenyl)-3-(4-nitrophenyl)-5-phenyltetrazolium chloride (1 mg/ml, 100 μl/well)
# BXF 1218 [8] = test: as above; assay type: cell-based; settings: Homo sapiens, read-out: Absolute IC50 values
# Method: as §8, §9, §10
# BXF 1352 [9] = test: as above; assay type: cell-based; settings: Homo sapiens, read-out: Absolute IC50 values
# Method: as §8, §9, §10
# BXF 5637 [10] = test: as above; assay type: cell-based; settings: Homo sapiens, read-out: Absolute IC50 values
# Method: as §8, §9, §10
# BXF T24 [11] = test: as above; assay type: cell-based, human; settings: read-out: Absolute IC50 values
# Method: as §8, §9
# Clonogenic Assay Procedure: The clonogenic assay was carried out in a 96 well plate format using ultra low attachment plates. […] Cultures were incubated at 37° C. and 7.5% CO2 in a humidified atmosphere for 8 to 13 days and monitored closely for colony growth using an inverted microscope. […]
# [12] = tested on: 5 human tumor cell lines of bladder cancer; test: In vitro 3D clonogenic assay, panel summary; assay type: cell-based; settings: for IC50: Homo sapiens
# Method: as §8, §9, §10
# BXF 1036L = test: In vitro combination study, 3D clonogenic assay, 5x5 matrix; assay type: cell-based; settings: Homo sapiens, monotherapy controls of 5x5 matrix, soft agar, read-out: IC50, colony formation, single agent
# Method: (§11) Summary: Terconazole was tested alone and in combination with cisplatin in order to investigate the ability to inhibit tumor cell growth of bladder cancer cell lines in a 5×5 matrix combination format. Efficacy of the combinations was assessed by measuring anchorage-independent growth and in vitro tumor colony formation using a 3D clonogenic assay in cell lines BXF 1036L, BXF 1218L, and BXF T24.
# (§12) The objective of this study was to assess anti-tumor efficacy of CIPDE033 and CIPDE034 in combination with cisplatin in a 5×5 matrix combination format against various bladder cancer cell lines. Efficacy of the combinations was assessed by measuring anchorage-independent growth and in vitro tumor colony formation using a 3D clonogenic assay in cell lines BXF 1036L, BXF 1218L, and BXF T24. […]
# (§13) Cultivation of Cell Lines: Cell lines were routinely passaged once or twice weekly and maintained in culture for up to 20 passages. […] The percentage of viable cells was determined in a Neubauer-hemocytometer using trypan blue exclusion.
# (§14) 3D Clonogenic Assay Procedure: The clonogenic assay was carried out in a 96 well plate format using ultra low attachment plates. […] Cultures were incubated at 37° C. and 7.5% CO2 in a humidified atmosphere for 8 to 13 days and monitored closely for colony growth using an inverted microscope. […]
# BXF T24 [13] = test: as above; assay type: cell-based; settings: Homo sapiens; monotherapy controls of 5x5 matrix, BXF T24, soft agar; read-out: IC50, colony formation, single agent
# Method: as §11, §12, §13, §14
# rat spleen HO-1 = target: T1, rat spleen HO-1 (Rattus norvegicus, UniProt P06762); settings: reported in literature; read-out: IC50, inhibition of rat spleen HO-1 activity; cited from earlier work
# T1 construct: host or cells: rat spleen
# T1 sequence (P06762 1-289): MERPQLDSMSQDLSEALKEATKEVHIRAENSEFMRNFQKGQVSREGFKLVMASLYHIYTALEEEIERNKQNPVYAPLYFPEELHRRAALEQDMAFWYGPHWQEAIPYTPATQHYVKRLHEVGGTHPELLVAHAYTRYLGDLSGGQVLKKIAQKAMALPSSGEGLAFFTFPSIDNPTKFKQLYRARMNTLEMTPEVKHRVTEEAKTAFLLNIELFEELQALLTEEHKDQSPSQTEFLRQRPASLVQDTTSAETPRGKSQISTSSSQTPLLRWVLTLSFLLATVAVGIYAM
compound,measurement,setting,value
CC(C)N1CCN(c2ccc(OC[C@@H]3CO[C@@](Cn4cncn4)(c4ccc(Cl)cc4Cl)O3)cc2)CC1 (racemic) [Terconazole],anticancer activity in vitro,HT1376,significant anticancer activity
same,anticancer activity in vitro,HTB-5,significant anticancer activity
same,anticancer activity in vitro,T-24,significant anticancer activity
same,IC50,BXF 1036 [1],29.4 µM
same,IC50,BXF 1218 [2],46.9 µM
same,IC50,BXF 1352 [3],45.9 µM
same,IC50,BXF 5637 [4],38.4 µM
same,IC50,BXF T24 [5],41.5 µM
same,IC50,[6],39.9 µM
same,IC50,BXF 1036 [7],29.7 µM
same,IC50,BXF 1218 [8],40.3 µM
same,IC50,BXF 1352 [9],36.6 µM
same,IC50,BXF 5637 [10],30.8 µM
same,IC50,BXF T24 [11]; Homo sapiens,33.1 µM
same,Bottom plateaus of the concentration-effect curves,"[12]; 3D clonogenic assay, responding tumor models",0%
same,IC50,[12]; read-out: mean relative IC50 value,33.5 µM
same,IC50,"[12]; 3D clonogenic assay, colony formation, read-out: IC50 values, range over all bladder cancer cell lines tested",29.6 to 40.1 µM
same,IC50,"[12]; 3D clonogenic assay, five cell lines, read-out: Geometric Mean Absolute IC50 values",33.9 µM
same,IC50,BXF 1036L,27.1 µM
same,IC50,BXF T24 [13],59.8 µM
same,IC50,rat spleen HO-1,410 ± 10 nM
"N.N.[Cl][Pt][Cl] [Cisplatin, cisplatin]",IC50,BXF T24 [11],53 µM
